Experiments:
Settings in all cases: 48 h
SEM cells [1] = assay: AUC of viability dose-response curve (% viability x log10 dose units); higher = less sensitive
In short: (§1)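 Area under the curve was integrated by trapezoidal rule from a log-logistic fit of normalised viability, with curves exceeding full viability scaled and quality-control failures removed. The fit had four parameters over log10 doses. Viability came from CellTiter-Glo One luminescence, normalised per plate to DMSO and cell-free wells, after leukemia cells adapted to each medium (500 or 1000 cells/well, 1536-well plates) were exposed to library compounds in DMSO for 48 h at 37°C. The 11 threefold doses ran from 47 μM to 0.79 nM.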

P12-Ichikawa [2] = assay: as above
In short: as §1

NOMO1 [3] = assay: cell viability relative to DMSO control; higher = less cytotoxic
In short: (§2)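 Viability is expressed as a percentage of DMSO wells within each plate, and cell-free wells serve as background. Seeding densities in the 1536-well plates (5 μl) were 500 cells/well for NOMO1 or SEM leukemia cells and 1000 cells/well for P12-Ichikawa. Each line was adapted for at least four passages in each medium. Library compounds in DMSO were pin-dosed at 47 μM to 0.79 nM (11 points, threefold), and CellTiter-Glo One luminescence was read after 48 h at 37°C.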

SEM cells [4] = assay: as above
In short: as §2

P12-Ichikawa [5] = assay: as above
In short: as §2

NOMO1 [6] = assay: AUC of viability dose-response curve (% viability x log10 dose units); higher = less sensitive
In short: as §1

COC1=C(OCCCN2CCOCC2)C=CC\3=C1/N=C(/NC(=O)C4=CN=C(N)N=C4)N5CC/N=C35
AUC of viability dose-response curve
Settings | HPLM + 10% dialyzed FBS | RPMI 5 mM glucose + 10% FBS | RPMI 5 mM glucose + 10% dialyzed FBS
P12-Ichikawa [2] | 385 | 344 | 364
SEM cells [1] | 369 | 360 | 358

cell viability [%]
Settings | NOMO1 [3] | P12-Ichikawa [5] | SEM cells [4]
HPLM + 10% dialyzed FBS, 0.000781 µM | 101 | 110 | 95.2
HPLM + 10% dialyzed FBS, 0.00234 µM | 111 | 97.6 | 94.2
HPLM + 10% dialyzed FBS, 0.00702 µM | 111 | 99.5 | 102
HPLM + 10% dialyzed FBS, 0.0211 µM | 89.4 | 100 | 99.2
HPLM + 10% dialyzed FBS, 0.0632 µM | 99.4 | 96 | 97.4
HPLM + 10% dialyzed FBS, 0.19 µM | 73.2 | 85.8 | 77.2
HPLM + 10% dialyzed FBS, 0.569 µM | 55.5 | 78.2 | 69.4
HPLM + 10% dialyzed FBS, 1.71 µM | 59.4 | 73.7 | 65.8
HPLM + 10% dialyzed FBS, 5.12 µM | 44.6 | 70.1 | 57.3
HPLM + 10% dialyzed FBS, 15.4 µM | 42.2 | 60.4 | 47.6
HPLM + 10% dialyzed FBS, 46.1 µM | 39.8 | 60.8 | 37.4
RPMI 5 mM glucose + 10% FBS, 0.000781 µM | 83.3 | 87.2 | 128
RPMI 5 mM glucose + 10% FBS, 0.00234 µM | 90.5 | 95.4 | 119
RPMI 5 mM glucose + 10% FBS, 0.00702 µM | 84.4 | 90.2 | 110
RPMI 5 mM glucose + 10% FBS, 0.0211 µM | 78.9 | 91.2 | 106
RPMI 5 mM glucose + 10% FBS, 0.0632 µM | 83.3 | 86.9 | 104
RPMI 5 mM glucose + 10% FBS, 0.19 µM | 80.5 | 74.7 | 97.6
RPMI 5 mM glucose + 10% FBS, 0.569 µM | 71.9 | 62.5 | 82.4
RPMI 5 mM glucose + 10% FBS, 1.71 µM | 59.6 | 56.8 | 88.1
RPMI 5 mM glucose + 10% FBS, 5.12 µM | 52 | 56.3 | 72
RPMI 5 mM glucose + 10% FBS, 15.4 µM | 49.3 | 47.1 | 63
RPMI 5 mM glucose + 10% FBS, 46.1 µM | 46.1 | 42 | 42.8
RPMI 5 mM glucose + 10% dialyzed FBS, 0.000781 µM | 94.7 | 87.8 | 89.3
RPMI 5 mM glucose + 10% dialyzed FBS, 0.00234 µM | 105 | 95.3 | 101
RPMI 5 mM glucose + 10% dialyzed FBS, 0.00702 µM | 88.9 | 98.3 | 93.2
RPMI 5 mM glucose + 10% dialyzed FBS, 0.0211 µM | 92.7 | 99.1 | 95.5
RPMI 5 mM glucose + 10% dialyzed FBS, 0.0632 µM | 77.8 | 87.3 | 86.3
RPMI 5 mM glucose + 10% dialyzed FBS, 0.19 µM | 63.5 | 82.5 | 83
RPMI 5 mM glucose + 10% dialyzed FBS, 0.569 µM | 59.6 | 67.4 | 66.5
RPMI 5 mM glucose + 10% dialyzed FBS, 1.71 µM | 54.1 | 62.6 | 59.3
RPMI 5 mM glucose + 10% dialyzed FBS, 5.12 µM | 49.6 | 58.7 | 56.6
RPMI 5 mM glucose + 10% dialyzed FBS, 15.4 µM | 49.1 | 49.1 | 51.8
RPMI 5 mM glucose + 10% dialyzed FBS, 46.1 µM | 34.6 | 45.8 | 35.1

C[N]1N=C(C)C2=C1OC(=C(/C#N)C2C3=CC=C(C=C3)C(F)(F)F)/N (stereo not given)
AUC of viability dose-response curve
Settings | HPLM + 10% dialyzed FBS | RPMI 5 mM glucose + 10% FBS | RPMI 5 mM glucose + 10% dialyzed FBS
P12-Ichikawa [2] | 457 | 467 | 454
SEM cells [1] | 467 | 438 | 439

Cc1ccc2c(=O)c3cccc(CC(=O)O)c3oc2c1C
AUC of viability dose-response curve
Settings | NOMO1 [6] | P12-Ichikawa [2] | SEM cells [1]
HPLM + 10% dialyzed FBS | 435 | 471 | 447
RPMI 5 mM glucose + 10% FBS | 471 | 464 | 440
RPMI 5 mM glucose + 10% dialyzed FBS | 429 | 460 | 449

Source: the supplement of paper PMC11451515
